Patent publication US4593047A, “Process for the preparation of 3-trifluoromethyl-and 2,5-dimethyl-4'-hdyroxy-α-ethyl-benzhydrol, and pharmaceutical compositions containing them” (Richter Gedeon Vegyeszeti Cyar RT, priority 1982, dated 1986)

How the values were obtained:
enzyme system of liver = settings: cited from earlier work
[1] = Acute toxicity, single oral dose, 14 days observation; format: in vivo
Experimental: The acute toxicity of the compound A was determined on Hann.-Wistar rats of both sexes, each weighing 160 to 180 g. in groups of 10. The animals were administered a single 2000 mg./kg. oral dose of the test compound, and then observed for 14 days.

[2] = Ethanolic narcosis period test (Table 1, 1 hour oral pretreatment); format: in vivo, Hann.-Wistar rats; settings: 1 hour before ethanol i.p., n=10, control = 100 ± 7.9
Experimental: (§1) The effect of the compounds according to the invention on ethanolic narcosis period was tested on Hann.-Wistar rats of both sexes, each weighing 160 to 180 g. The animals were fasted for 16 hours prior to treatment and tests were performed on groups of 10. The animals were treated with various doses of the test compounds orally. One hour after treatment the rats were administered a […]. dose of ethanol intraperitoneally, and their narcosis period was measured from the elapse of the righting reflex until a spontaneous correction of the body position. The mean value of the narcosis period and the percentage difference related to the control were calculated. The results are given in Table 1. x±S.E.=mean value±standard error n=number of animals The control group was treated with placebo and a 3.5 mg./kg. dose of ethanol. Narcosis period of the control: 87.4±6.91 (x±S.E.) min.

[3] = Ethanolic narcosis period as a function of the pretreatment period (Table 2); format: in vivo, Hann.-Wistar rats; settings: 40.0 mg./kg. oral, n=10
Experimental: as §1, with “calculated.” for “calculated. The results are given in Table 1. x±S.E.=mean value±standard error n=number of animals The control group was treated with placebo and a 3.5 mg./kg. dose of ethanol. Narcosis period of the control: 87.4±6.91 (x±S.E.) min.”
There was examined the effect of a 40.0 mg./kg. dose of the above test compound on the ethanolic narcosis period as a function of the pretreatment-period, following the test procedure described above.

[4] = in vivo; cited from earlier work
[5] = in vivo; cited from earlier work; remark: listed apart in the source
[6] = cited from earlier work

For `CCC(O)(c1ccccc1)c1cc(C)ccc1C` (stereo not drawn) [2,5-dimethyl-α-ethyl-benzhydrol], the “Inducing effect on the enzyme system of liver” value (enzyme system of liver) is listed as “shows a similar activity”.
In the case of `CCC(O)(c1ccccc1)c1cccc(C(F)(F)F)c1` (stereo not drawn) [3-trifluoromethyl-α-ethyl-benzhydrol], the “Inducing effect on the enzyme system of liver” value (enzyme system of liver) is listed as “has an inducing effect on the enzyme system of liver”.
With `CCC(O)(c1ccc(O)cc1)c1cccc(C(F)(F)F)c1` (stereo not drawn) [A, 3-trifluoromethyl-4'-hydroxy-α-ethyl-benzhydrol] the Toxicity ([1]; oral, single dose) was “toxicity is low”, the LD50 at 336 h ([1]; rat, in vivo, oral, single dose, 14 days observation) was > 2000 mg/kg and the mortality at 336 h ([1]; rat, in vivo, single 2000 mg./kg. oral dose, 14 days observation, read-out: Animals perished) was 40%. The “Ethanolic narcosis period (Control ± S.E. %)” value ([2]; 40.0 mg./kg. oral) was 53 ± 5.8%, the “Ethanolic narcosis period (Control ± S.E. %)” value ([2]; 80.0 mg./kg. oral) was 62 ± 5.1% and the “Narcosis period, treated” value ([3]; pretreatment 0.5 hours, control 87.2 ± 6.23) was 54.1 ± 3.49. For the same compound, the “Narcosis period, % difference from the control” value (shortened to “Narcosis period, % difference”) ([3]; pretreatment 0.5 hours) was -38%, the “Narcosis period, treated” value ([3]; pretreatment 1.0 hours, control 85.1 ± 4.91) was 45.1 ± 2.30 and the “Narcosis period, % difference” value ([3]; pretreatment 1.0 hours) was -47%. For the same compound, the “Narcosis period, treated” value ([3]; pretreatment 2.0 hours, control 85.5 ± 9.97) was 29.9 ± 5.08, the “Narcosis period, % difference” value ([3]; pretreatment 2.0 hours) was -65% and the “Narcosis period, treated” value ([3]; pretreatment 3.0 hours, control 83.4 ± 8.46) was 75.1 ± 4.51. The “Narcosis period, % difference” value ([3]; pretreatment 3.0 hours) was -10%.
In the case of `N[C@@H](CS)C(=O)O` [L-cysteine, reference compound], the Alcoholic intoxication [4] is given as “shortened”, the Alcoholic narcosis [4] is given as “shortened” and the “Ethanolic narcosis period (Control ± S.E. %)” value ([2]; 500.0 mg./kg. oral) is given as 63 ± 4.2%. For the same compound, the “Ethanolic narcosis period (Control ± S.E. %)” value ([2]; 1000.0 mg./kg. oral) was 66 ± 5.9%.
In the case of `CC(N)Cc1ccccc1` (stereo not shown) [amphetamine], the “Motoric incoordination (ataxia)” value [5] is given as “prolong the motoric incoordination (ataxia)” and the “Narcotizing effect of alcohol” value [5] is given as “decrease the narcotizing effect of alcohol”.
In the case of `Cn1c(=O)c2c(ncn2C)n(C)c1=O` [caffeine], the “Motoric incoordination (ataxia)” value [5] is listed as “prolong the motoric incoordination (ataxia)” and the “Narcotizing effect of alcohol” value [5] is listed as “decrease the narcotizing effect of alcohol”.
For `CC(N)(Cc1ccc(O)cc1)C(=O)O` (stereo not drawn) [α-Methyl-p-tyrosine], the “Effect on locomotoric hyperactivity” value ([6]; mice, dose range in which spontaneous locomotor activity is decreased) is given as “normalizing effect” and the Spontaneous locomotor activity ([6]; same dose range as normalizing effect on hyperactivity) is given as “decreases the spontaneous locomotor activity”.
